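Test compounds were applied to cells in 96-well plates for 48 hours at 5 doses. Abbreviation: GI50, concentration required for 50% inhibition of growth.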 Active and inactive are the calls of the source. No stated cut-off is given here; in the data, active = GI50 up to about 1.1 µM and inactive = higher.
Legend:
Test in all cases: DTP human tumour cell line panel, 48 h
A498 = system: A498
DU-145 = system: DU-145
EKVX = system: EKVX
HCC 2998 = system: HCC 2998
HL-60 = system: HL-60
HOP-92 = system: HOP-92
Hs-578T = system: Hs-578T
Malme-3M = system: Malme-3M
NCI-H23 = system: NCI-H23
NCI-H460 = system: NCI-H460
NCI/ADR-RES = system: NCI/ADR-RES
OVCAR-3 = system: OVCAR-3
PC-3 = system: PC-3
SF-295 = system: SF-295
SF-539 = system: SF-539
SK-MEL-5 = system: SK-MEL-5
T47D = system: T47D
UO-31 = system: UO-31
RPMI-8226 = system: RPMI-8226
RXF 393 = system: RXF 393

Structure (SMILES) | GI50 (A498) | GI50 (DU-145) | GI50 (EKVX) | GI50 (HCC 2998) | GI50 (HL-60) | GI50 (HOP-92) | GI50 (Hs-578T) | GI50 (Malme-3M) | GI50 (NCI-H23) | GI50 (NCI-H460) | GI50 (NCI/ADR-RES) | GI50 (OVCAR-3) | GI50 (PC-3) | GI50 (SF-295) | GI50 (SF-539) | GI50 (SK-MEL-5) | GI50 (T47D) | GI50 (UO-31) | GI50 (RPMI-8226) | GI50 (RXF 393)
O=C(NN1C(=O)/C(=C/c2ccc(Cl)cc2)N=C1c1ccccc1)c1c(Cl)c(Cl)c(Cl)c(Cl)c1-c1nc2ccccc2[nH]1 | 12.9 µM (inactive) | 17.7 µM (inactive) | 19.4 µM (inactive) | 8.09 µM (inactive) | 18.9 µM (inactive) | 11.6 µM (inactive) | 13.5 µM (inactive) | 20.8 µM (inactive) | 13.4 µM (inactive) | < 0.01 µM (active) | 15.3 µM (inactive) | 33 µM (inactive) | 20.2 µM (inactive) | < 0.01 µM (active) | 23.8 µM (inactive) | 19.7 µM (inactive) | 0.582 µM (active) | 16.3 µM (inactive) | – | –
c1ccc2c(c1)Nc1nc3nonc3nc1N2 | > 100 µM (inactive) | > 100 µM (inactive) | > 100 µM (inactive) | > 100 µM (inactive) | > 100 µM (inactive) | > 100 µM (inactive) | > 100 µM (inactive) | > 100 µM (inactive) | > 100 µM (inactive) | > 100 µM (inactive) | > 100 µM (inactive) | – | > 100 µM (inactive) | > 100 µM (inactive) | – | > 100 µM (inactive) | > 100 µM (inactive) | > 100 µM (inactive) | > 100 µM (inactive) | > 100 µM (inactive)
CC(C)C1OC2(C)OC(=N)C1(C#N)C(C#N)(C#N)C2C (configuration not stated) | 67.5 µM (inactive) | 28.4 µM (inactive) | 18.7 µM (inactive) | 13.7 µM (inactive) | 15.9 µM (inactive) | 17.7 µM (inactive) | 24.3 µM (inactive) | 19.6 µM (inactive) | 30.6 µM (inactive) | 15.8 µM (inactive) | 54.8 µM (inactive) | 17.7 µM (inactive) | 24.6 µM (inactive) | > 100 µM (inactive) | 24.6 µM (inactive) | 13.7 µM (inactive) | 15 µM (inactive) | 45.7 µM (inactive) | – | 36.2 µM (inactive)
CC1=NN2C(=N)/C(=C/c3ccco3)C(=O)N=C2S1 | > 100 µM (inactive) | > 100 µM (inactive) | > 100 µM (inactive) | > 100 µM (inactive) | > 100 µM (inactive) | 65.5 µM (inactive) | > 100 µM (inactive) | > 100 µM (inactive) | > 100 µM (inactive) | > 100 µM (inactive) | > 100 µM (inactive) | > 100 µM (inactive) | > 100 µM (inactive) | > 100 µM (inactive) | > 100 µM (inactive) | > 100 µM (inactive) | > 100 µM (inactive) | > 100 µM (inactive) | > 100 µM (inactive) | > 100 µM (inactive)
COc1ccc(C2C3=C(N=C4SC(C(C)=O)=C(C)N42)c2ccccc2CC3)cc1 (configuration not stated) | > 100 µM (inactive) | > 100 µM (inactive) | – | 42.4 µM (inactive) | 10.1 µM (inactive) | > 100 µM (inactive) | 69 µM (inactive) | – | 80 µM (inactive) | – | > 10 µM (inactive) | > 100 µM (inactive) | > 100 µM (inactive) | > 100 µM (inactive) | > 100 µM (inactive) | 50.5 µM (inactive) | 31.8 µM (inactive) | 91.6 µM (inactive) | 4.91 µM (inactive) | 23.7 µM (inactive)
CCOC(=O)c1nc2ccc(C(F)(F)F)cc2nc1Oc1ccc(C(=O)OC)cc1 | > 100 µM (inactive) | 55.7 µM (inactive) | > 100 µM (inactive) | > 100 µM (inactive) | > 100 µM (inactive) | 43.2 µM (inactive) | 33.2 µM (inactive) | – | 97.5 µM (inactive) | 54.5 µM (inactive) | > 100 µM (inactive) | – | 32.5 µM (inactive) | 54.8 µM (inactive) | 77.8 µM (inactive) | 43.1 µM (inactive) | > 100 µM (inactive) | > 100 µM (inactive) | > 100 µM (inactive) | 64.6 µM (inactive)
COC(=O)c1ccccc1C1CN=NC12Cc1c(C)c3c(c(C)c1C2=O)CCC3 (configuration not stated) | > 100 µM (inactive) | > 100 µM (inactive) | > 100 µM (inactive) | > 100 µM (inactive) | > 100 µM (inactive) | 22.5 µM (inactive) | > 100 µM (inactive) | > 100 µM (inactive) | 54.6 µM (inactive) | > 100 µM (inactive) | > 100 µM (inactive) | > 100 µM (inactive) | > 100 µM (inactive) | 33.1 µM (inactive) | > 100 µM (inactive) | > 100 µM (inactive) | > 100 µM (inactive) | > 100 µM (inactive) | – | > 100 µM (inactive)
N#CC(Nc1ccccc1)c1ccc(C(C#N)Nc2ccccc2)cc1 (configuration not stated) | > 100 µM (inactive) | 44.1 µM (inactive) | > 100 µM (inactive) | 30.3 µM (inactive) | 5.79 µM (inactive) | 28.1 µM (inactive) | > 100 µM (inactive) | > 100 µM (inactive) | 41.5 µM (inactive) | 44.6 µM (inactive) | 46.7 µM (inactive) | 35.9 µM (inactive) | 28.8 µM (inactive) | 40 µM (inactive) | 25.7 µM (inactive) | 20.3 µM (inactive) | 24.8 µM (inactive) | 21.1 µM (inactive) | – | > 100 µM (inactive)
CCOP(=O)(C=C=C(C)C)OCC | > 100 µM (inactive) | > 100 µM (inactive) | > 100 µM (inactive) | > 100 µM (inactive) | 94.6 µM (inactive) | > 100 µM (inactive) | > 100 µM (inactive) | > 100 µM (inactive) | > 100 µM (inactive) | > 100 µM (inactive) | > 100 µM (inactive) | > 100 µM (inactive) | > 100 µM (inactive) | > 100 µM (inactive) | > 100 µM (inactive) | > 100 µM (inactive) | > 100 µM (inactive) | – | – | > 100 µM (inactive)
O=C(NN=C(c1ccccc1)c1ccccc1)/C(O)=C/C(=O)c1ccc(Cl)cc1 | 16.5 µM (inactive) | 73.1 µM (inactive) | 30.7 µM (inactive) | 39.5 µM (inactive) | – | – | 27.2 µM (inactive) | 20.7 µM (inactive) | 23.2 µM (inactive) | 5.5 µM (inactive) | 20.7 µM (inactive) | 30.8 µM (inactive) | 27.1 µM (inactive) | 34.7 µM (inactive) | 26.4 µM (inactive) | 29.1 µM (inactive) | 30.2 µM (inactive) | 29.8 µM (inactive) | – | 35.2 µM (inactive)
CC1(C)OC2C(O)CN3CCS[C@H]3C2O1 (some centres not stated) | > 100 µM (inactive) | > 100 µM (inactive) | > 100 µM (inactive) | > 100 µM (inactive) | > 100 µM (inactive) | > 100 µM (inactive) | > 100 µM (inactive) | > 100 µM (inactive) | > 100 µM (inactive) | > 100 µM (inactive) | > 100 µM (inactive) | > 100 µM (inactive) | > 100 µM (inactive) | > 100 µM (inactive) | – | > 100 µM (inactive) | > 100 µM (inactive) | > 100 µM (inactive) | > 100 µM (inactive) | > 100 µM (inactive)
COC(=O)/C=C\C(C#N)(C#N)/N=C/c1ccc(Br)s1 | 17.7 µM (inactive) | 10.7 µM (inactive) | 12.2 µM (inactive) | 19.1 µM (inactive) | 1.85 µM (inactive) | 1.93 µM (inactive) | 25.3 µM (inactive) | 1.77 µM (inactive) | 9.2 µM (inactive) | 20.8 µM (inactive) | 18.6 µM (inactive) | 11 µM (inactive) | 13.4 µM (inactive) | 17.7 µM (inactive) | – | 11.9 µM (inactive) | 3.52 µM (inactive) | 2.39 µM (inactive) | 2.32 µM (inactive) | 2.03 µM (inactive)
CN(C)c1ccc(C(c2ccc(Cl)cc2)c2ccc(N(C)C)cc2)cc1 | > 100 µM (inactive) | > 100 µM (inactive) | 62.5 µM (inactive) | 69 µM (inactive) | > 100 µM (inactive) | > 100 µM (inactive) | 90.6 µM (inactive) | 30.1 µM (inactive) | > 100 µM (inactive) | > 100 µM (inactive) | > 100 µM (inactive) | > 100 µM (inactive) | > 100 µM (inactive) | > 100 µM (inactive) | > 100 µM (inactive) | 92.9 µM (inactive) | 64.7 µM (inactive) | > 100 µM (inactive) | 30.1 µM (inactive) | 28.8 µM (inactive)
CCN(CC)C(=O)N[C@@H](CC(C)C)C(=O)NC | > 100 µM (inactive) | > 100 µM (inactive) | > 100 µM (inactive) | > 100 µM (inactive) | 43.3 µM (inactive) | – | > 100 µM (inactive) | > 100 µM (inactive) | > 100 µM (inactive) | > 100 µM (inactive) | > 100 µM (inactive) | > 100 µM (inactive) | 73.6 µM (inactive) | > 100 µM (inactive) | – | > 100 µM (inactive) | > 100 µM (inactive) | > 100 µM (inactive) | > 100 µM (inactive) | > 100 µM (inactive)
Cc1cc(S(=O)(=O)Nc2nc(N)n[nH]2)c(S)cc1Cl | > 10 µM (inactive) | > 10 µM (inactive) | > 10 µM (inactive) | > 10 µM (inactive) | > 10 µM (inactive) | – | > 10 µM (inactive) | > 10 µM (inactive) | > 10 µM (inactive) | > 10 µM (inactive) | > 10 µM (inactive) | > 10 µM (inactive) | > 10 µM (inactive) | > 10 µM (inactive) | > 10 µM (inactive) | > 10 µM (inactive) | > 10 µM (inactive) | – | > 10 µM (inactive) | > 10 µM (inactive)

— ChEMBL document CHEMBL1201862, “PubChem BioAssay data set” (2004)
